The EC50 is the concentration giving half of the maximal effect.

The target of this test is T1, HEK cells stably transfected with tetracycline inducible hNR1 and hNR2A (Homo sapiens, UniProt Q05586+Q12879).
T1 construct: expressed in transfected cells; host or cells: HEK cells, stably transfected, tetracycline/doxycycline inducible
T1 sequence (Q12879 23-1464, other chains not shown): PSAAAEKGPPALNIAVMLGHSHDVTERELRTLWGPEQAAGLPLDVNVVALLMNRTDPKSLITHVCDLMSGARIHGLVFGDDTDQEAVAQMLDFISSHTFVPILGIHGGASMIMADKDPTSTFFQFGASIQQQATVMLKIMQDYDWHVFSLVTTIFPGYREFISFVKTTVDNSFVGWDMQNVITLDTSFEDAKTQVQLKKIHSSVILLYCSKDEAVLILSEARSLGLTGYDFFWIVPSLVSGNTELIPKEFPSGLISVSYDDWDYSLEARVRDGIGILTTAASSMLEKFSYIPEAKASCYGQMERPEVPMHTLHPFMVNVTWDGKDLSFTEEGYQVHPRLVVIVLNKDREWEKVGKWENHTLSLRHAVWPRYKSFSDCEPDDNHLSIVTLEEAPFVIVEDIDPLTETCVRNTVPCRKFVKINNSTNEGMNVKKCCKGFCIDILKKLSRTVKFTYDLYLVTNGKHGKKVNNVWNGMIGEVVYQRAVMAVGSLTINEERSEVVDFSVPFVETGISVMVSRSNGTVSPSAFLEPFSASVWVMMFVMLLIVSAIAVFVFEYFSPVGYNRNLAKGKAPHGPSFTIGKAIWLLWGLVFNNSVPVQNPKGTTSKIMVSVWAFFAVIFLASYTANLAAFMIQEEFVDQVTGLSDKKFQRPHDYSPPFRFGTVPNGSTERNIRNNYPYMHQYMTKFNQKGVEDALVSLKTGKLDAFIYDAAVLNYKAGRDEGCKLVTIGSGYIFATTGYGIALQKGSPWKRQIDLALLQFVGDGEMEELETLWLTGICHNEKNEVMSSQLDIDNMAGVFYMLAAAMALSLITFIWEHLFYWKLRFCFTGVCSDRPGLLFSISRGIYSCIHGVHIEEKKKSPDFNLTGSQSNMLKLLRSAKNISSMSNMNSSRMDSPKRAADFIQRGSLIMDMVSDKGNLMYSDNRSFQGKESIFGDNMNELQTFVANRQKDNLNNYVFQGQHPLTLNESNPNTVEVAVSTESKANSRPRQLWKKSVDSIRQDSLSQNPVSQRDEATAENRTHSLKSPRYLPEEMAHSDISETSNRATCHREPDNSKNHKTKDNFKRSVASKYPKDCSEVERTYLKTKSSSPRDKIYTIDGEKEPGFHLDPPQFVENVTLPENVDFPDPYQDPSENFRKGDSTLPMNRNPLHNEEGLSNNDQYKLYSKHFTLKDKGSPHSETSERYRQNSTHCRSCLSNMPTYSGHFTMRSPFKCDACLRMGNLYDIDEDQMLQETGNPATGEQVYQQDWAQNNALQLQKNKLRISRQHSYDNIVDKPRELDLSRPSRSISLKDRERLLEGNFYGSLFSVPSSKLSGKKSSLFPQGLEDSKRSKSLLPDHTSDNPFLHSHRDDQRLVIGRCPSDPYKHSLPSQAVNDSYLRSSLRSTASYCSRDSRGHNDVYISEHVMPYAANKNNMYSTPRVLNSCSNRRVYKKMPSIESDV
Nature of the test: Assay 1: Cell-Based Assay, cytosolic calcium response to positive allosteric modulators (with 30 μM glycine and 300 nM L-glutamate, EC30). As to conditions: Table 3; cytosolic calcium response, with 30 μM glycine and 300 nM L-glutamate (EC30); — = no plateau was reached. The method, boiled down:
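Cells induced 24 h with 7.5 μg mL^−1 doxycycline plus 500 μM (+)-ketamine, loaded 60 min at 37 °C with calcium dye in Mg-free HBSS (1.8 mM Ca, probenecid, 10 μM (+)-ketamine, pH 7.15). Peak RFU over 5 min after compound addition, scaled to 100 μM L-glutamate (100%) and 0 μM (0%); four-parameter Hill fit for EC50, max % if no plateau.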
For the compound `Cc1sc2nc(Cc3cc(C(F)(F)F)ccc3Cl)cc(=O)n2c1C1CC1C#N` (stereo not shown) [compound 187, 2-[7-[[2-chloro-5-(trifluoromethyl)phenyl]methyl]-2-methyl-5-oxo-thiazolo[3,2-a]pyrimidin-3-yl]cyclopropanecarbonitrile], the 50% effective concentration (EC50) is 11100 nM.

Regarding `Cc1sc2nc(Cn3nc(C(F)(F)F)cc3Cl)cc(=O)n2c1C1CCC1` [compound 188, 7-[[5-chloro-3-(trifluoromethyl)pyrazol-1-yl]methyl]-3-cyclobutyl-2-methyl-thiazolo[3,2-a]pyrimidin-5-one], the EC50 was found to be 3140 nM.

`Cc1sc2nc(Cn3nc(Cl)cc3C(F)(F)F)cc(=O)n2c1C1CCC1` [compound 189, 7-[[3-chloro-5-(trifluoromethyl)pyrazol-1-yl]methyl]-3-cyclobutyl-2-methyl-thiazolo[3,2-a]pyrimidin-5-one]: the concentration for a half-maximal effect (EC50) worked out at 7450 nM.

As to `Cc1sc2nc(CN(C)c3ccc(Cl)cn3)cc(=O)n2c1C1CC1C#N` (stereo not shown) [compound 190, 2-[7-[[(5-chloro-2-pyridyl)-methyl-amino]methyl]-2-methyl-5-oxo-thiazolo[3,2-a]pyrimidin-3-yl]cyclopropanecarbonitrile], the EC50 came out at 779 nM.

As for `Cc1sc2nc(Cn3nc(C(F)(F)F)cc3Cl)cc(=O)n2c1Cl` [compound 192, 3-chloro-7-[[5-chloro-3-(trifluoromethyl)pyrazol-1-yl]methyl]-2-methyl-thiazolo[3,2-a]pyrimidin-5-one], the EC50 was found to be 198 nM.

For the compound `Cc1sc2nc(Cn3nc(Cl)cc3C(F)(F)F)cc(=O)n2c1Cl` [compound 193, 3-chloro-7-[[3-chloro-5-(trifluoromethyl)pyrazol-1-yl]methyl]-2-methyl-thiazolo[3,2-a]pyrimidin-5-one], the EC50 was determined as 243 nM.

As for `COc1cc(F)c(F)cc1Cc1cc(=O)n2c(C3CC3C#N)c(C)sc2n1` (stereo not shown) [compound 194, 2-[7-[(4,5-difluoro-2-methoxy-phenyl)methyl]-2-methyl-5-oxo-thiazolo[3,2-a]pyrimidin-3-yl]cyclopropanecarbonitrile], the EC50 was 1280 nM.

Take `CCN(Cc1cc(=O)n2c(C3CC3C#N)c(C)sc2n1)c1ccc(F)cn1` (stereo not shown) [compound 195, 2-[7-[[ethyl-(5-fluoro-2-pyridyl)amino]methyl]-2-methyl-5-oxo-thiazolo[3,2-a]pyrimidin-3-yl]cyclopropanecarbonitrile]: the EC50 amounted to 74.2 nM.

Turning to `CCN(Cc1cc(=O)n2c(C3CC3CO)c(C)sc2n1)c1ccc(Cl)cn1` (stereo not shown) [compound 196, 7-[[(5-chloro-2-pyridyl)-ethyl-amino]methyl]-3-[2-(hydroxymethyl)cyclopropyl]-2-methyl-thiazolo[3,2-a]pyrimidin-5-one], the EC50 is 64.2 nM.

For the compound `Cc1sc2nc(Cn3nc(C(F)(F)F)cc3Cl)cc(=O)n2c1-c1cncc(C#N)c1` [compound 197, 5-[7-[[5-chloro-3-(trifluoromethyl)pyrazol-1-yl]methyl]-2-methyl-5-oxo-thiazolo[3,2-a]pyrimidin-3-yl]pyridine-3-carbonitrile], the EC50 was determined as 327 nM.

Regarding `Cc1sc2nc(Cn3nc(C(F)(F)F)cc3Cl)cc(=O)n2c1C(=O)C(F)(F)F` [compound 198, 7-[[5-chloro-3-(trifluoromethyl)pyrazol-1-yl]methyl]-2-methyl-3-(2,2,2-trifluoroacetyl)thiazolo[3,2-a]pyrimidin-5-one], the concentration for a half-maximal effect (EC50) stood at 201 nM.

As for `CC1CC1c1c(C(F)(F)F)sc2nc(Cn3nc(C(F)(F)F)cc3Cl)cc(=O)n12` (stereo not shown) [compound 199, 7-[[5-chloro-3-(trifluoromethyl)pyrazol-1-yl]methyl]-3-(2-methylcyclopropyl)-2-(trifluoromethyl)thiazolo[3,2-a]pyrimidin-5-one], the concentration for a half-maximal effect (EC50) was found to be 1390 nM.

Take `CC1CC1c1c(C(F)(F)F)sc2nc(Cn3nc(Cl)cc3C(F)(F)F)cc(=O)n12` (stereo not shown) [compound 200, 7-[[3-chloro-5-(trifluoromethyl)pyrazol-1-yl]methyl]-3-(2-methylcyclopropyl)-2-(trifluoromethyl)thiazolo[3,2-a]pyrimidin-5-one]: the EC50 worked out at 3130 nM.

The values are drawn from patent US9988400B2 (Genentech, Inc., priority 2013, dated 2018).
